Tests used:
obese dogs = assay: Clinical trial in obese dogs: BCS, body weight, chest and waist circumference, resting energy requirement, fat thickness, body fat; assay type: in vivo
Excerpt: Adult dogs which were naturally obese but otherwise healthy were selected regardless of breed, sex, and altered status, and informed consent was obtained from the dog owners for participation in the clinical trial.
As a result of physical examination of all dogs (including body weight and BCS (a total of 9 levels), FIG. 1 and Table 1), those diagnosed as obese were selected. The BCS used to select dogs is classified into a total of 9 levels, and dogs with a BCS of level 6 or higher were selected, and detailed criteria are presented in Table 1 and FIG. 1.
A total of 20 dogs were selected and divided into 4 groups with 5 dogs in each group: a normal obese control (OC); hereinafter, referred to as a control (OC)), an enavogliflozin 0.2-administered group, an enavogliflozin 0.5-administered group, and an enavogliflozin 1-administered group. The control was fed regular feed, and the enavogliflozin-administered groups were fed regular feed supplemented with enavogliflozin at doses of 0.2, 0.5, or 1 mg/kg, respectively. The feed was supplemented with enavogliflozin once a day for 8 weeks and given orally.
Body weights (BW), chest circumferences, and waist circumferences were measured immediately before the first intake of enavogliflozin-supplemented feed, and once every two weeks for the next 10 weeks. The chest circumferences and waist circumferences were measured four times each at the thickest part of the chest and the thinnest part between the chest and hind legs, and an average size was calculated. Resting energy requirement (RER) was calculated using Equation 1 in the reference document (Brooks et al., Journal of the American Animal Hospital Association 50, 1-11. (2014)).
Fat thicknesses were evaluated by measuring the perpendicular distance from the T10 spinal process to the skin by radiography (Titan 2000 X-ray system, COMED Medical Systems Co., Ltd., Seoul, Korea) on the first day of enavogliflozin administration, and on weeks 4, 8, and 10 of administration. Body fat was measured with a body fat meter every two weeks for a total of 10 weeks after the start of enavogliflozin administration.

[1] = Non-clinical toxicity test: 39 weeks repeated oral administration, changes in body weight; assay type: in vivo, beagles
[2] = 0.2 mg/kg once a day oral for 8 weeks, week 0
[3] = 0.2 mg/kg once a day oral for 8 weeks, week 2
[4] = 0.2 mg/kg once a day oral for 8 weeks, week 4
[5] = 0.2 mg/kg once a day oral for 8 weeks, week 6
[6] = 0.2 mg/kg once a day oral for 8 weeks, week 8
[7] = 0.2 mg/kg once a day oral for 8 weeks, week 10
[8] = 0.5 mg/kg once a day oral for 8 weeks, week 0
[9] = 0.5 mg/kg once a day oral for 8 weeks, week 2
[10] = 0.5 mg/kg once a day oral for 8 weeks, week 4
[11] = 0.5 mg/kg once a day oral for 8 weeks, week 6
[12] = 0.5 mg/kg once a day oral for 8 weeks, week 8
[13] = 0.5 mg/kg once a day oral for 8 weeks, week 10
[14] = 1 mg/kg once a day oral for 8 weeks, week 0
[15] = 1 mg/kg once a day oral for 8 weeks, week 2
[16] = 1 mg/kg once a day oral for 8 weeks, week 4
[17] = 1 mg/kg once a day oral for 8 weeks, week 6
[18] = 1 mg/kg once a day oral for 8 weeks, week 8
[19] = 1 mg/kg once a day oral for 8 weeks, week 10
[20] = all enavogliflozin-administered groups

Structure (SMILES): OC[C@H]1O[C@@H](c2cc(Cc3ccc(C4CC4)cc3)c(Cl)c3c2CCO3)[C@H](O)[C@@H](O)[C@@H]1O [Enavogliflozin, enavogliflozin]
- body fat percentage, rank among groups (obese dogs; 0.2 mg/kg): lowest
- Change rates of chest circumference (obese dogs; [2]): 100.00 ± 0.00%
- Change rates of resting energy requirement (obese dogs; [2]): 100.00 ± 0.00%
- Change rates of waist circumference (obese dogs; [2]): 100.00 ± 0.00%
- Change rates of chest circumference (obese dogs; [3]): 99.20 ± 3.44%
- Change rates of resting energy requirement (obese dogs; [3]): 96.98 ± 2.69%
- Change rates of waist circumference (obese dogs; [3]): 100.53 ± 4.71%
- Change rates of chest circumference (obese dogs; [4]): 97.16 ± 2.74%
- Change rates of resting energy requirement (obese dogs; [4]): 93.41 ± 5.79%
- Change rates of waist circumference (obese dogs; [4]): 97.39 ± 12.15%
- Change rates of chest circumference (obese dogs; [5]): 95.08 ± 3.96%
- Change rates of resting energy requirement (obese dogs; [5]): 95.21 ± 4.10%
- Change rates of waist circumference (obese dogs; [5]): 98.96 ± 15.47%
- Change rates of chest circumference (obese dogs; [6]): 96.08 ± 2.60%
- Change rates of resting energy requirement (obese dogs; [6]): 94.64 ± 3.59 %
- Change rates of waist circumference (obese dogs; [6]): 98.89 ± 11.98%
- Change rates of chest circumference (obese dogs; [7]): 99.18 ± 3.01%
- Change rates of resting energy requirement (obese dogs; [7]): 96.15 ± 4.75%
- Change rates of waist circumference (obese dogs; [7]): 101.98 ± 10.78%
- BCS compared to the control (OC) (obese dogs; 0.2 mg/kg, at 4, 8, and 10 weeks after the start of administration, p<0.05): significantly lower than the control (OC)
- resting energy requirement (RER) compared to the control (OC) (obese dogs; 0.2 mg/kg, at 4 weeks and 8 weeks after the start of administration, p<0.05): significantly lower
- body weight compared to the control (OC) (obese dogs; 0.2 mg/kg, from 4 weeks after the start of administration, p<0.05): significantly lower than the control (OC)
- fat thickness change, significance (obese dogs; 0.2 mg/kg, week 8 and week 10): significant at week 8 and week 10
- body weight (obese dogs; 0.5 mg/kg): decreasing at week 2 and week 4 of the trial and then slowly increasing
- Change rates of chest circumference (obese dogs; [8]): 100.00 ± 0.00%
- Change rates of resting energy requirement (obese dogs; [8]): 100.00 ± 0.00%
- Change rates of waist circumference (obese dogs; [8]): 100.00 ± 0.00%
- Change rates of chest circumference (obese dogs; [9]): 98.19 ± 4.31%
- Change rates of resting energy requirement (obese dogs; [9]): 98.63 ± 0.72%
- Change rates of waist circumference (obese dogs; [9]): 99.57 ± 1.71%
- Change rates of chest circumference (obese dogs; [10]): 97.16 ± 3.23%
- Change rates of resting energy requirement (obese dogs; [10]): 97.93 ± 1.00%
- Change rates of waist circumference (obese dogs; [10]): 98.45 ± 4.94%
- Change rates of chest circumference (obese dogs; [11]): 95.60 ± 4.55%
- Change rates of resting energy requirement (obese dogs; [11]): 97.54 ± 2.73%
- Change rates of waist circumference (obese dogs; [11]): 96.30 ± 3.83%
- Change rates of chest circumference (obese dogs; [12]): 93.90 ± 3.11%
- Change rates of resting energy requirement (obese dogs; [12]): 96.92 ± 2.00%
- Change rates of waist circumference (obese dogs; [12]): 93.84 ± 5.54%
- Change rates of chest circumference (obese dogs; [13]): 96.43 ± 2.76%
- Change rates of resting energy requirement (obese dogs; [13]): 98.79 ± 2.30%
- Change rates of waist circumference (obese dogs; [13]): 96.00 ± 4.72%
- BCS (obese dogs; 0.5 mg/kg, entire experimental period): decreased during the entire experimental period
- Change rates of chest circumference (obese dogs; [14]): 100.00 ± 0.00%
- Change rates of resting energy requirement (obese dogs; [14]): 100.00 ± 0.00%
- Change rates of waist circumference (obese dogs; [14]): 100.00 ± 0.00%
- Change rates of chest circumference (obese dogs; [15]): 94.79 ± 6.67%
- Change rates of resting energy requirement (obese dogs; [15]): 97.75 ± 2.32%
- Change rates of waist circumference (obese dogs; [15]): 95.97 ± 11.67%
- Change rates of chest circumference (obese dogs; [16]): 99.81 ± 2.43%
- Change rates of resting energy requirement (obese dogs; [16]): 98.11 ± 2.18%
- Change rates of waist circumference (obese dogs; [16]): 99.18 ± 8.09%
- Change rates of chest circumference (obese dogs; [17]): 100.54 ± 4.98%
- Change rates of resting energy requirement (obese dogs; [17]): 98.95 ± 2.07%
- Change rates of waist circumference (obese dogs; [17]): 103.75 ± 10.54%
- Change rates of chest circumference (obese dogs; [18]): 99.20 ± 4.49%
- Change rates of resting energy requirement (obese dogs; [18]): 99.19 ± 4.05%
- Change rates of waist circumference (obese dogs; [18]): 99.76 ± 12.53%
- Change rates of chest circumference (obese dogs; [19]): 100.24 ± 5.15%
- Change rates of resting energy requirement (obese dogs; [19]): 99.97 ± 6.15%
- Change rates of waist circumference (obese dogs; [19]): 101.33 ± 14.44%
- BCS compared to the control (OC) (obese dogs; 1 mg/kg, at the end of the experiment): lower than the control (OC) at the end of the experiment
- BCS compared to the control (OC) (obese dogs; 1 mg/kg, during the experiment): slightly increased compared to the control (OC)
- BCS, body weight, body fat percentage, fat thickness, and chest and waist circumferences (obese dogs; 8-week administration): reduced
- fat thickness (obese dogs; all administration groups (0.2, 0.5, 1 mg/kg)): decreased in all administration groups
- chest circumference (obese dogs; [20]): decreased
- waist circumference (obese dogs; [20]): decreased
- body fat percentage (obese dogs; all groups (0.2, 0.5, 1 mg/kg)): no significant differences
- anti-obesity results, comparison of doses (obese dogs; feed supplemented with 0.2 mg/kg): most effective results
- body weight decrease ([1]; normal female beagles, 1 mg/kg/day oral): 7.6%
- body weight decrease ([1]; normal female beagles, 3 mg/kg/day oral): 11.8%
- body weight decrease ([1]; normal female beagles, 6 mg/kg/day oral): 11.3%
- body weight decrease ([1]; normal male beagles, 1 mg/kg/day oral): 9.1%
- body weight decrease ([1]; normal male beagles, 3 mg/kg/day oral): 12.7%
- body weight decrease ([1]; normal male beagles, 6 mg/kg/day oral): 21.0%

— US20250114387A1, “PHARMACEUTICAL COMPOSITION COMPRISING ENAVOGLIFLOZIN FOR PREVENTING OR TREATING OBESITY IN CANINE ANIMALS” (DAEWOONG PHARMACEUTICAL CO., LTD., priority 2022, published 2025)
